Experimental data published in ChEMBL document CHEMBL1146415, “3-Epi-aplykurodinone B, a new degraded sterol from Aplysia fasciata” (1997).

Experiments:
Type in all cases: functional
Details in all cases: read-out: ED50 (the source's name)
A549 = assay: Cytotoxicity against human A549 cells
SK-MEL-28 = assay: Cytotoxicity against human SK-MEL-28 cells
HT-29 = assay: Cytotoxicity against human HT-29 cells
P388 = assay: Cytotoxicity against mouse P388 cells

Measured: EC50

CC(C)=CCC[C@@H](C)[C@H]1C[C@@H]2OC(=O)C[C@@H]3C(=O)CC[C@@]1(C)[C@H]23 [3-EPI-APLYKURODINONE B]
2.5 µg/mL: all assays above
